Consider 3 compounds from patent US8222247B2, “Modulators of glucocorticoid receptor, AP-1, and/or NF-kappabeta activity and use thereof” (Bristol-Myers Squibb Company, priority 2006, dated 2012).

Assay [1] has as its target T1, human glucocorticoid receptor (Homo sapiens, UniProt P04150).
T1 construct: purified human recombinant full-length glucocorticoid receptor (2 nM); purchased Invitrogen Part #2893
T1 sequence (P04150 1-777): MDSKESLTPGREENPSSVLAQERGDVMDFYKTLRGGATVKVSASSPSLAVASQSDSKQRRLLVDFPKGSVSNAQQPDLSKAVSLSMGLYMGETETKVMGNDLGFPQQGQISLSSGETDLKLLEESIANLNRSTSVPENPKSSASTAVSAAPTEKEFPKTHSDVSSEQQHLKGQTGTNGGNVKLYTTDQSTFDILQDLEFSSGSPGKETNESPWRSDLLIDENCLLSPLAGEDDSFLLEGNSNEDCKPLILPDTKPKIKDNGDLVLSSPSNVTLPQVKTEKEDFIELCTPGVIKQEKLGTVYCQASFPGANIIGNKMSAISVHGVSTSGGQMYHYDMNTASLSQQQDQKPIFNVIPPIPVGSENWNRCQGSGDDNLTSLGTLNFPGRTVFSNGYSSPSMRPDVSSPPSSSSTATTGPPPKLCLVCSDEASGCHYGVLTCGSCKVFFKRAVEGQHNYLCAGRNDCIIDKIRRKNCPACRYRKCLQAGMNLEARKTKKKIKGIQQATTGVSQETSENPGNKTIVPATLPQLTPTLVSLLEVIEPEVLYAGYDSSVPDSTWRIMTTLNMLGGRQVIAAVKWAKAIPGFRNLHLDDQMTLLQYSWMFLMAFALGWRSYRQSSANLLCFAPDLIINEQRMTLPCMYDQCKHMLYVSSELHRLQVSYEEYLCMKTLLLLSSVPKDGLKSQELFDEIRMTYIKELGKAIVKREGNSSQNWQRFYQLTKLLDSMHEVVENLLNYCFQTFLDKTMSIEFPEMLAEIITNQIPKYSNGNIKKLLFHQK
Description: Glucocorticoid Receptor Binding Assay (I), fluorescence polarization competitor kit. The following applies: purified human recombinant full-length GR, Fluormone GS Red. The gist of the method: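 Fluorescence polarization competition of purified recombinant full-length human GR (2 nM) with 1 nM Fluormone GS Red, incubated 2 h at room temperature in the dark. Normalized to vehicle (0%) and 5 μM dexamethasone (100%) as % relative binding activity. Compounds tested 8.5E-05 to 5 μM.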

Assay [2] addresses T2, human full-length glucocorticoid receptor (Homo sapiens, UniProt P04150).
T2 construct: recombinantly expressed human full-length glucocorticoid receptor; purchased PanVera Co., Madison, Wis; P2816
T2 sequence (P04150 1-777): T1 sequence (P04150 1-777)
Nature of the assay: Glucocorticoid Receptor Binding Assay (II), fluorescence polarization competitor kit. The following applies: 1 h, % Relative Binding Affinity to dexamethasone, read-out: GR (% RBA* @ 10 μM) (GR Binding Assay (II)b). The protocol:
Glucocorticoid Receptor Binding Assay (II)^b
In order to measure the binding of compounds on the glucocorticoid receptor a commercially available kit was used (Glucocorticoid receptor competitor assay kit, PanVera Co., Madison, Wis., P2816). Briefly, a cell lysate containing recombinantly expressed human full-length glucocorticoid receptor was mixed with a fluorescently labeled glucocorticoid (1 nM Fluormone GS1) in the presence or absence of test compound. After one hour at room temperature, the fluorescence polarization (FP) of the samples were measured. The FP of a mixture of receptor, fluorescent probe (i.e. Fluormone GS1) and 1 mM dexamethasone represented background fluorescence or 100% inhibition, whereas, the FP of the mixture without dexamethasone was taken to be 100% binding. The percentage inhibition of test molecules were then compared to the sample with 1 mM dexamethasone and expressed as % relative binding activity with dexamethasone being 100% and no inhibition is 0%. Test molecules were analyzed in the concentration range from 2.4 nM to 40 microMolar.

Turning to `CC(C)(C(=O)Nc1nncs1)C(c1cccc(F)c1)c1ccc(N2CCOCC2)s1` (stereo not shown) [Example 9, 3-(3-fluorophenyl)-2,2-dimethyl-3-(5-(4-morpholinyl)-2-thienyl)-N-1,3,4-thiadiazol-2-ylpropanamide], the inhibition constant (Ki) in assay [1] came to 24.6 nM. Also, the percent relative binding activity vs dexamethasone at 10 µM in assay [2] is 49.7%.

Turning to `COc1ncc(C(c2ccccc2)C(C)(C)C(=O)Nc2nncs2)cc1Cl` (stereo not shown) [Example 27, 3-(5-chloro-6-methoxy-3-pyridinyl)-2,2-dimethyl-3-phenyl-N-1,3,4-thiadiazol-2-ylpropanamide], in assay [2], the percent relative binding activity vs dexamethasone at 10 µM came out at 52.8%.

For `CC(C)(C(=O)Nc1nncs1)C(c1ccccc1)c1cnc(N2CCOCC2)c(Cl)c1` (stereo not shown) [Example 28, 3-(5-chloro-6-(4-morpholinyl)-3-pyridinyl)-2,2-dimethyl-3-phenyl-N-1,3,4-thiadiazol-2-ylpropanamide], in assay [2], the percent relative binding activity vs dexamethasone at 10 µM is 187%.
